Experimental findings from ChEMBL document CHEMBL6096670, “Design, synthesis and biological evaluation of novel β-carbolines as antitumor agents via targeting autophagy in colorectal cancer” (Eur J Med Chem, 2025) are described below.

Activity calls are given as the source filed them. No cut-off for these calls is given here.

Data set [1] has as its system HCT-116. Briefly: Induction of apoptosis in human HCT-116 assessed as necrotic cells at 1 uM incubated for 24 hrs Annexin V FITC/PI double staining based flow cytometry (reference value: 0.94 %). It counts as functional. For orientation: In flow cytometry, cells or beads pass a laser one at a time.
For data set [2], the system named is HCT-116. Briefly: Induction of apoptosis in human HCT-116 assessed as late apoptotic cells at 1 uM pretreated with Z-VAD-FMK for 30 mins followed by compound addition and measured after 24 hrs by Annexin V-FITC/PI double staining based flow cytometry (reference value: 7.43 %). The class given is functional.
Data set [3] relates to HCT-116. Description: Antiproliferative activity against ATG7 knockout human HCT-116 cells assessed as inhibition of cell viability incubated for 24 hrs by CCK8 assay. Conditions: HCT-116, 24 h. The class given is functional, cell-based. In general terms: Formazan colour is commonly taken as a measure of viable cells.
Data set [4] can be described thus: Toxicity in female BALB/c mouse implanted with mouse CT26 cells assessed as change in heart morphology at 1 to 2 mg/kg administrated once every 3 days for 18 days by H&E staining based analysis. The class given is organism-based. To be noted: in vivo, 432 h, dose 1-2 mg/kg, time 18 day.
Data set [5] is described as follows: Toxicity in female BALB/c mouse implanted with mouse CT26 cells assessed as change in kidney morphology at 1 to 2 mg/kg administrated once every 3 days for 18 days by H&E staining based analysis. The class given is organism-based. Conditions: in vivo, 432 h, dose 1-2 mg/kg, time 18 day.
The test system of data set [6] is HCT-116. Briefly: Induction of morphological changes in human HCT-116 cells assessed as appearance of inflated cell shape at 0.5 to 2 uM by microscopic analysis. The class given is functional, cell-based. To be noted: dose 0.5-2 µM.
The subject of data set [7] is HCT-116. Description: Induction of autophagy in human HCT-116 cells transfected with mRFP-GFP-LC3B assessed as autophagolysosome formation by measuring decrease in GFP fluorescence at 0.5 to 2 uM incubated for 24 hrs by DAPI staining based fluorescence confocal microscopic analysis. It counts as functional, cell-based. Conditions: dose 0.5-2 µM.
Data set [8] deals with HCT-116. Description: Inhibition of colony formation in ATG7 knockout human HCT-116 cells assessed as reduction in number of colonies at 1 to 4 uM measured after 24 hrs by crystal violet staining based analysis. It counts as functional, cell-based. Conditions: dose 1-4 µM.

As a reminder, the IC50 is the concentration at which inhibition is half-maximal.

Take `CCN(CC)CCCNCc1cc2c3ccccc3n(CCCc3ccccc3)c2c(CNCCCN(CC)CC)n1`: the Activity is 2.02% in the data set with HCT-116 [1], 12.4% with HCT-116 [2], “Non-toxic” in data set [4] and “Non-toxic” in data set [5]. Besides, the IC50 in the data set with HCT-116 [3] amounted to 6.49 µM. Moreover, the result in the data set with HCT-116 [6] and with HCT-116 [7] was Active. Moreover, the inhibition entry in the data set with HCT-116 [8] is recorded as “Active; Insignificant Decrease In Number Of Colonies Observed”.
